SMILES strings stand for the structures. Where two headings read alike, the source gives them in different places. A value given as a limit tells only on which side of the number the result lay.

The test system of one data set is RSV. Nature of the data set: Anti-RSV activity in RSV-infected A549 cells (MTT and SRB). The note with it: for Therapeutic index (TI) = IC50(A549)/EC50(A549 + RSV): IC50 in A549; for Therapeutic index (TI) = IC50(B16F10)/EC50(A549 + RSV): IC50 in B16F10; for Therapeutic index (TI) = IC50(HEP2)/EC50(A549 + RSV): IC50 in HEP2; for Therapeutic index (TI) = IC50(VERO)/EC50(A549 + RSV): IC50 in VERO. The data set is classed as cell-based, RSV A strain (line A2).

A further data set concerns VERO cells. Nature of the data set: cells. The settings on record: for IC50: Chlorocebus sabaeus, 96 h, read-out: IC50 ± SD, concentration toxic to 50% of non-infected VERO cells. The class given is cell-based.
Another data set relates to HEP2 cells. As to the kind of experiment: cells. The data set is classed as cell-based. The note with it: for IC50: Homo sapiens, read-out: IC50 ± SD, concentration toxic to 50% of non-infected HEP2 cells.
Another data set relates to B16F10 cells. As to the kind of experiment: cells. The note with it: for IC50: Mus musculus, read-out: IC50 ± SD, concentration toxic to 50% of non-infected B16F10 cells. The class given is cell-based.
A further data set concerns A549 cells. Nature of the data set: cells. The class given is cell-based. The settings on record: for IC50: Homo sapiens, read-out: IC50 ± SD, concentration toxic to 50% of non-infected A549 cells.
The test system of a further data set is HIV protease. Also on record: method as in PMID 10071849. The settings on record: read-out: IC50 HIV protease inhibition; cited from earlier work.
Data set [1] concerns SARS-CoV. The note with it: cited from earlier work.
A further data set relates to RSV protein F gene. The class given is cell-based. The note with it: 12.5 µM, RSV-infected A549 cells, 96 h, compared to control.
For data set [2], the system named is SARS-CoV. The note with it: in vitro in Vero cells; read-out: IC50 against SARS-CoV; cited from earlier work.
[3] abbreviates: human respiratory syncytial virus, A549, A549+RSV, treated 4 hours after viral infection, 96 h, read-out: EC50 ± SD, concentration that inhibits RSV replication by 50%.
[4] abbreviates: human respiratory syncytial virus, A549, read-out: EC50 ± SD, concentration that inhibits RSV replication by 50%, A549+RSV, treated 4 hours after viral infection, 96 h.
Where [5] appears, read: MTT test, non-infected VERO cells.
Setting [6] is: HEp-2, MTT test, 96 h, non-infected HEP2 cells.
Setting [7] is: B16-F10, MTT test, 96 h, non-infected B16F10 cells.
Setting [8] is: MTT test, 96 h, non-infected A549 cells.

Take `NC(=O)c1ncn([C@@H]2O[C@H](CO)[C@@H](O)[C@H]2O)n1` [RBV, ribavirin, reference compound]: in the data set with RSV (setting [3]), the EC50 was 4.9 ± 1.4 µM.
`C=C(C)[C@@H]1CC[C@]2(C(=O)O)CC[C@]3(C)[C@H](CC[C@@H]4[C@@]5(C)CC[C@H](O)C(C)(C)[C@@H]5CC[C@]43C)[C@@H]12` [compound 1, betulinic acid, reference compound]: the IC50 is 14.2 ± 0.2 µM in the data set on VERO cells (Vero); 28 ± 0.3 µM with HEP2 cells (HEp-2, 96 h); 22.7 ± 0.8 µM in the data set on B16F10 cells (B16-F10, 96 h); 17.8 ± 0.6 µM in the data set on A549 cells (A549, 96 h); 8 µM in the data set on HIV protease. Also, the “Therapeutic index (TI) = IC50(A549)/EC50(A549 + RSV)” value in the data set on RSV is 3.4. Further, in the data set on RSV, the “Therapeutic index (TI) = IC50(B16F10)/EC50(A549 + RSV)” value amounted to 4.3. The “Therapeutic index (TI) = IC50(HEP2)/EC50(A549 + RSV)” value in the data set on RSV worked out at 5.3. Moreover, in the data set with RSV, the “Therapeutic index (TI) = IC50(VERO)/EC50(A549 + RSV)” value was found to be 2.7. The EC50 is 5.3 ± 0.7 µM in the data set with RSV (setting [4]) and 10 µM in the data set on SARS-CoV [1] (read-out: EC50 anti-SARS-CoV activity). Besides, the “SI anti-SARS-CoV activity” value in the data set on SARS-CoV [1] was over 10.
As to `C[C@H]1[C@H](C)CC[C@]2(C(=O)O)CC[C@]3(C)C(=CC[C@@H]4[C@@]5(C)CC[C@H](O)C(C)(C)[C@@H]5CC[C@]43C)[C@H]12` [compound 2, ursolic acid, reference compound], the IC50 in the data set with VERO cells (Vero) is 12.9 ± 0.8 µM; in the data set with HEP2 cells (HEp-2, 96 h) it was 26.9 ± 0.4 µM; with B16F10 cells (B16-F10, 96 h), 16.2 ± 0.8 µM; with A549 cells (A549, 96 h), 26.7 ± 0.9 µM; in the data set on HIV protease, 9 µM. For the same molecule, in the data set with RSV, the “Therapeutic index (TI) = IC50(A549)/EC50(A549 + RSV)” value amounted to 1.5. In the data set on RSV, the “Therapeutic index (TI) = IC50(B16F10)/EC50(A549 + RSV)” value was 0.9. In addition, in the data set with RSV, the “Therapeutic index (TI) = IC50(HEP2)/EC50(A549 + RSV)” value worked out at 1.6. Moreover, the “Therapeutic index (TI) = IC50(VERO)/EC50(A549 + RSV)” value in the data set on RSV was 0.8. In the data set with RSV (setting [4]), the EC50 amounted to 17.3 ± 0.9 µM.
Consider `C=C(C)[C@@H]1CC[C@]2(C(=O)O)CC[C@]3(C)[C@H](CC[C@@H]4[C@@]5(C)CC[C@H](OC(C)=O)C(C)(C)[C@@H]5CC[C@]43C)[C@@H]12` [compound 3], for which the IC50 in the data set on VERO cells (Vero) was 13.4 ± 2.1 µM; with HEP2 cells (HEp-2, 96 h) it was 11.5 ± 1.5 µM; with B16F10 cells (B16-F10, 96 h) it was 10.2 ± 1.1 µM; in the data set with A549 cells (A549, 96 h), 53 ± 0.9 µM. Besides, in the data set on RSV, the “Therapeutic index (TI) = IC50(A549)/EC50(A549 + RSV)” value came out at 1.2. The “Therapeutic index (TI) = IC50(B16F10)/EC50(A549 + RSV)” value in the data set with RSV amounted to 0.2. Moreover, in the data set on RSV, the “Therapeutic index (TI) = IC50(HEP2)/EC50(A549 + RSV)” value was 0.3. The “Therapeutic index (TI) = IC50(VERO)/EC50(A549 + RSV)” value in the data set on RSV was 0.3. In the data set with RSV (setting [4]), the EC50 was 44.4 ± 0.5 µM.
For the molecule `CC(=O)OC1CCC2(C)C(CCC3(C)C2CC=C2C4C(C)C(C)CCC4(C(=O)O)CCC23C)C1(C)C` (stereo not drawn) [compound 4], the IC50 stood at 12.6 ± 1.2 µM in the data set on VERO cells (setting [5]), 17.2 ± 0.9 µM with HEP2 cells (setting [6]), 12.4 ± 0.8 µM in the data set on B16F10 cells (setting [7]) and 133 ± 1.1 µM with A549 cells (setting [8]). Besides, in the data set with RSV, the “Therapeutic index (TI) = IC50(A549)/EC50(A549 + RSV)” value is 9.3. In the data set with RSV, the “Therapeutic index (TI) = IC50(B16F10)/EC50(A549 + RSV)” value was 0.9. Also, in the data set on RSV, the “Therapeutic index (TI) = IC50(HEP2)/EC50(A549 + RSV)” value was found to be 1.2. Moreover, the “Therapeutic index (TI) = IC50(VERO)/EC50(A549 + RSV)” value in the data set on RSV was 0.9. For the same molecule, the EC50 in the data set on RSV (setting [4]) was found to be 14.3 µM; with RSV (read-out: EC50 ± SD, concentration that inhibits RSV replication by 50%, A549+RSV, treated 4 hours after viral infection, 96 h), 14.3 ± 0.6 µM.
Regarding `C#CCOC(=O)[C@]12CC[C@@H](C(=C)C)[C@@H]1[C@H]1CC[C@@H]3[C@@]4(C)CC[C@H](OC(C)=O)C(C)(C)[C@@H]4CC[C@@]3(C)[C@]1(C)CC2` [compound 5], the IC50 in the data set on VERO cells (Vero) worked out at 14.5 ± 0.2 µM; with HEP2 cells (HEp-2, 96 h), 18.4 ± 0.6 µM; in the data set on B16F10 cells (B16-F10, 96 h), 25.6 ± 0.5 µM; with A549 cells (A549, 96 h), 88.8 ± 1 µM. Further, the “Therapeutic index (TI) = IC50(A549)/EC50(A549 + RSV)” value with RSV stood at 148.0. In the data set on RSV, the “Therapeutic index (TI) = IC50(B16F10)/EC50(A549 + RSV)” value came to 42.7. For the same molecule, in the data set on RSV, the “Therapeutic index (TI) = IC50(HEP2)/EC50(A549 + RSV)” value was 30.7. For the same molecule, in the data set with RSV, the “Therapeutic index (TI) = IC50(VERO)/EC50(A549 + RSV)” value is 24.2. In the data set on RSV (setting [3]), the EC50 came out at 0.6 ± 0.8 µM.
`C#CCOC(=O)[C@]12CC[C@@H](C)[C@H](C)[C@H]1C1=CC[C@@H]3[C@@]4(C)CC[C@H](OC(C)=O)C(C)(C)[C@@H]4CC[C@@]3(C)[C@]1(C)CC2` [compound 6]: the IC50 in the data set with VERO cells (setting [5]) turned out to be 26.1 ± 0.6 µM. Besides, the IC50 in the data set with HEP2 cells (setting [6]) was 20.3 ± 0.4 µM. The IC50 with B16F10 cells (setting [7]) turned out to be 29 ± 1.1 µM. The IC50 with A549 cells (setting [8]) turned out to be 67.2 ± 0.5 µM. In the data set with RSV, the “Therapeutic index (TI) = IC50(A549)/EC50(A549 + RSV)” value is reported as 1.9, the “Therapeutic index (TI) = IC50(B16F10)/EC50(A549 + RSV)” value was found to be 0.8, the “Therapeutic index (TI) = IC50(HEP2)/EC50(A549 + RSV)” value came out at 0.6 and the “Therapeutic index (TI) = IC50(VERO)/EC50(A549 + RSV)” value is 0.7. Further, in the data set with RSV (setting [3]), the EC50 amounted to 36.2 ± 0.9 µM.
On to `C=C(C)[C@@H]1CC[C@]2(C(=O)OCc3cn(-c4cccc([N+](=O)[O-])c4)nn3)CC[C@]3(C)[C@H](CC[C@@H]4[C@@]5(C)CC[C@H](OC(C)=O)C(C)(C)[C@@H]5CC[C@]43C)[C@@H]12` [compound 7], for which the IC50 in the data set on VERO cells (Vero) worked out at 18.9 ± 1.4 µM; in the data set with HEP2 cells (HEp-2, 96 h) it was 23.8 ± 2 µM; in the data set with B16F10 cells (B16-F10, 96 h), 18.8 ± 0.7 µM; with A549 cells (A549, 96 h) it was 42.7 ± 0.6 µM. The EC50 stood at 0.3 ± 0.1 µM in the data set on RSV (A549+RSV, treated 4 hours after viral infection, 96 h, read-out: EC50 ± SD, concentration that inhibits RSV replication by 50%) and 0.314 µM with RSV (setting [3]). Moreover, the “Therapeutic index (TI) = IC50(A549)/EC50(A549 + RSV)” value with RSV stood at 142.3. Besides, the “Therapeutic index (TI) = IC50(B16F10)/EC50(A549 + RSV)” value in the data set on RSV amounted to 62.7. Also, the “Therapeutic index (TI) = IC50(HEP2)/EC50(A549 + RSV)” value with RSV is 79.3. Besides, the “Therapeutic index (TI) = IC50(VERO)/EC50(A549 + RSV)” value in the data set on RSV is listed as 63.0.
With `CC(=O)OC1CCC2(C)C(CCC3(C)C2CC=C2C4C(C)C(C)CCC4(C(=O)OCc4cn(-c5cccc([N+](=O)[O-])c5)nn4)CCC23C)C1(C)C` (stereo not drawn) [compound 8], the IC50 in the data set on VERO cells (Vero) came to 21.6 ± 0.9 µM; with HEP2 cells (HEp-2, 96 h), 19.9 ± 1.2 µM; with B16F10 cells (B16-F10, 96 h), 9.8 ± 0.6 µM; in the data set with A549 cells (A549, 96 h), 59.2 ± 0.9 µM. For the same molecule, the “Cytotoxicity (in words)” value in the data set on VERO cells (non-infected VERO cells), in the data set with HEP2 cells (non-infected HEP2 cells), in the data set with B16F10 cells (non-infected B16F10 cells) and with A549 cells (non-infected A549 cells) was “low cytotoxicity” in each case. For the same molecule, the “Therapeutic index (TI) = IC50(B16F10)/EC50(A549 + RSV)” value in the data set with RSV was 196.0. For the same molecule, the “Therapeutic index (TI) = IC50(HEP2)/EC50(A549 + RSV)” value in the data set with RSV stood at 398.0. Moreover, the “Therapeutic index (TI) = IC50(VERO)/EC50(A549 + RSV)” value with RSV was found to be 432.0. Further, the EC50 with RSV (setting [4]) stood at 0.053 µM. The “Reduction of RSV protein F gene expression” value with RSV protein F gene was “approximately 65%”.
`CC1(C)[C@@H](O[C@H]2O[C@H](C(=O)O)[C@@H](O)[C@H](O)[C@H]2O[C@@H]2O[C@H](C(=O)O)[C@@H](O)[C@H](O)[C@H]2O)CC[C@]2(C)[C@H]3C(=O)C=C4[C@@H]5C[C@@](C)(C(=O)O)CC[C@]5(C)CC[C@@]4(C)[C@]3(C)CC[C@@H]12` [glycyrrhizic acid]: the IC50 in the data set on SARS-CoV [2] was 365 µM.

These data come from article PMC9663970, “New triazole-substituted triterpene derivatives exhibiting anti-RSV activity: synthesis, biological evaluation, and molecular modeling” (Beilstein Journal of Organic Chemistry, 2022).
